Reference: patent publication US8518883B2, “Method of reducing deleterious effects of ischemia by administration of a thrombopoietin receptor ligand” (MCW Research Foundation, Inc., priority 2006, dated 2013)

Columns and labels:
[1] = system: in vitro rat hearts; experiment: Isolated perfused (Langendorff) rat heart, 25 min global ischemia and 180 min reperfusion: hemodynamics, infarct size, recovery of LVDP
Protocol: The study was directed to determining whether Tpo (0.01-10.0 ng/ml) confers immediate cardioprotection in rat hearts and the contribution of potassium channels to the underlying mechanism. Hearts from normoxic 8 week old Sprague Dawley rats (n=8/group) were isolated and perfused in the Langendorff mode. Hemodynamic function was recorded under steady-state conditions prior to 25 minutes global no flow ischemia and 180 minutes reperfusion.
Isolated heart perfusion. Isolated rat hearts were perfused with bicarbonate buffer at constant pressure in a retrograde manner and instrumented as described in Baker, et al., Am. J. Physiol. Heart Circulat. Physiol. 278:1395-1400, 2000 potassium channel blockers were added to this perfusate as needed. A 3-way tap, located immediately above the site of cannulation, allowed the entire perfusate to be diverted away from the heart to produce global, no-flow ischemia. Reperfusion was achieved by repositioning of the tap to allow perfusate to be delivered to the heart. Left ventricular function was monitored continuously throughout each experiment as described in Baker, et al., supra, 2000. End-diastolic pressure was initially set to 3 mmHg for 2 minutes. The balloon was then progressively inflated with a microsyringe to set end-diastolic pressures to 8 mmHg for the left ventricle, with developed pressure and heart rate recorded during steady-state conditions. Coronary flow rate was measured throughout the experiment by timed collections of the coronary effluent from the right side of the heart into a graduated cylinder. Coronary flow rate was expressed as milliliters per minute per gram wet weight.
Resistance to myocardial ischemia. Hearts from adult rats were perfused with bicarbonate buffer, and biventricular function was monitored continuously throughout each experiment as described in Baker, et al., supra, 2000. For concentration response studies, hearts were then perfused with Tpo (0.01-10.0 ng/ml) for 15 minutes prior to 25 minutes ischemia and 180 minutes reperfusion. For mechanism studies with potassium channel blockers, hearts were perfused with drugs for 15 minutes alone followed by 15 minutes in combination with Tpo prior to ischemia. Hearts perfused with potassium channel blockers alone in the absence of Tpo for 30 minutes prior to ischemia served as untreated controls for these studies. Recovery of post-ischemic left ventricular developed pressure was expressed as a percentage of its pre-drug, pre-ischemic value.
Assessment of ventricular function. Left ventricular function was monitored continuously throughout each experiment as described in Baker, et al., supra, 2000. Recovery of left ventricular pressure following ischemia was used to assess resistance to ischemia.
Measurement of infarct size/area at risk at 3 hours reperfusion were used to assess resistance to myocardial ischemia. For characterization of infarction size, hearts were perfused with 10 ml bicarbonate buffer containing triphenyltetrazolium chloride (SIGMA) at 37° C.
The heart was sectioned in 2 mm segments from apex to atrio-ventricular groove in a transverse fashion. Each segment was recorded and placed in formalin. After twenty-four (24) hours, the specimen was digitally photographed in a camera mount to normalize specimen-to-lens distance. Each photograph was then appended to Adobe Photoshop (Adobe™) to measure pixel density of infarcted versus non-infarcted areas. The percentage of infarction of each slide was expressed as a percentage of the entire area of the heart.
Hearts from male Sprague Dawley rats at 8 weeks of age were isolated and perfused with Tpo at 0.01, 0.1, 1.0, and 10 ng/ml for 15 minutes prior to 25 minutes global ischemia and 180 minutes reperfusion (FIG. 2). Tpo (1.0 ng/ml) reduced coronary flow rate prior to ischemia from 6±1 ml/min/g to 5±1 ml/min/g, increased left ventricular developed pressure from 119±15 mmHg to 151±19 mmHg and decreased heart rate from 240±34 beats/minute to 228±17 beats/minute. […]

[2] = system: Sprague Dawley rats; experiment: Coronary artery ligation model, Tpo given after the onset of reperfusion; format: in vivo, rat; conditions: Tpo 0.05 μg/kg i.v. 10 seconds following reperfusion after 30 min regional ischemia
Protocol: FIG. 10 is a graphic depiction of the effect of Tpo (0.05 μg/kg) on myocardial infarct size in vivo (as percentage % of area at risk) when administered intravenously 10 seconds after the onset of 3 hours reperfusion following 30 minutes regional myocardial ischemia in vivo induced by suture ligation of the left main coronary artery. *=P<0.05, with Tpo vs. without Tpo (control).
Animals used in this study were adult male Sprague Dawley rats (200-350 g, generally 300 g). Animals were housed under standard conditions and allowed to feed ad lib. The Animal Care and Use Committee of the Medical College of Wisconsin approved all procedures performed in accordance with the regulations adopted by the National Institutes of Health.
A myocardial infarction was produced via the ligation of the left main artery using 6-0 prolene suture (See, e.g., Clements-Jewery, et al., supra, 2002; Farkas, et al., supra, 2002). Rats were anesthetized with sodium pentobarbital (50 mg/kg i.p.). The left main coronary artery was identified and ligated with a 5-0 Prolene suture threaded through a polyethylene tube to act as an occluder. […]
The heart was sectioned in 2 mm segments from apex to atrio-ventricular groove in a transverse fashion. Each segment was recorded and placed in formalin. […] The percentage of infarction of each slide was expressed as a percentage of the entire area of the heart.

[3] = POST DRUG, Tpo 0.01 ng/ml for 15 min
[4] = POST DRUG, Tpo 0.1 ng/ml for 15 min
[5] = POST DRUG, Tpo 1.0 ng/ml for 15 min
[6] = POST DRUG, Tpo 10.0 ng/ml for 15 min
[7] = REPERFUSION, Tpo 0.01 ng/ml, 25 min global ischemia, 180 min reperfusion
[8] = REPERFUSION, Tpo 0.1 ng/ml, 25 min global ischemia, 180 min reperfusion
[9] = REPERFUSION, Tpo 1.0 ng/ml, 25 min global ischemia, 180 min reperfusion
[10] = REPERFUSION, Tpo 10.0 ng/ml, 25 min global ischemia, 180 min reperfusion
[11] = Tpo 0.01-10.0 ng/ml for 15 min prior to 25 min global ischemia, 180 min reperfusion

Thrombopoietin [Tpo]
Infarct size following ischemia and reperfusion ([1]; 'U' shaped concentration-dependent, Tpo 0.01-10.0 ng/ml): reduced
Coronary flow rate [1, 3]: 5 ± 1 mL/min/g
Heart rate [1, 3]: 202 ± 16 beats/min
Left ventricle developed pressure [1, 3]: 156 ± 13 mmHg
Coronary flow rate [1, 4]: 5 ± 1 mL/min/g
Heart rate [1, 4]: 233 ± 12 beats/min
Left ventricle developed pressure [1, 4]: 158 ± 13 mmHg
Coronary flow rate [1, 5]: 5 ± 1 mL/min/g
Heart rate [1, 5]: 228±17 beats/min
Left ventricle developed pressure [1, 5]: 151±19 mmHg
Coronary flow rate [1, 6]: 6 ± 1 mL/min/g
Heart rate [1, 6]: 220 ± 10 beats/min
Left ventricle developed pressure [1, 6]: 172 ± 26 mmHg
Coronary flow rate ([1]; PRE DRUG, Tpo 0.01 ng/ml group): 6 ± 1 mL/min/g
Heart rate ([1]; PRE DRUG, Tpo 0.01 ng/ml group): 225 ± 31 beats/min
Left ventricle developed pressure ([1]; PRE DRUG, Tpo 0.01 ng/ml group): 130 ± 13 mmHg
Coronary flow rate ([1]; PRE DRUG, Tpo 0.1 ng/ml group): 5 ± 1 mL/min/g
Heart rate ([1]; PRE DRUG, Tpo 0.1 ng/ml group): 228 ± 17 beats/min
Left ventricle developed pressure ([1]; PRE DRUG, Tpo 0.1 ng/ml group): 120 ± 15 mmHg
Coronary flow rate ([1]; PRE DRUG, Tpo 1.0 ng/ml group): 6 ± 1 mL/min/g
Heart rate ([1]; PRE DRUG, Tpo 1.0 ng/ml group): 240±34 beats/min
Left ventricle developed pressure ([1]; PRE DRUG, Tpo 1.0 ng/ml group): 119±15 mmHg
Coronary flow rate ([1]; PRE DRUG, Tpo 10.0 ng/ml group): 6 ± 1 mL/min/g
Heart rate ([1]; PRE DRUG, Tpo 10.0 ng/ml group): 226 ± 29 beats/min
Left ventricle developed pressure ([1]; PRE DRUG, Tpo 10.0 ng/ml group): 134 ± 13 mmHg
Coronary flow rate [1, 7]: 3 ± 1 mL/min/g
Heart rate [1, 7]: 184 ± 31 beats/min
Left ventricle developed pressure [1, 7]: 52 ± 9 mmHg
Coronary flow rate [1, 8]: 3 ± 1 mL/min/g
Heart rate [1, 8]: 197 ± 36 beats/min
Left ventricle developed pressure [1, 8]: 64 ± 11 mmHg
Coronary flow rate [1, 9]: 4 ± 1 mL/min/g
Heart rate [1, 9]: 204 ± 41 beats/min
Left ventricle developed pressure [1, 9]: 62 ± 8 mmHg
Coronary flow rate [1, 10]: 4 ± 1 mL/min/g
Heart rate [1, 10]: 183 ± 16 beats/min
Left ventricle developed pressure [1, 10]: 64 ± 10 mmHg
Recovery of coronary flow rate ([1]; Tpo 1.0 ng/ml): unaffected
Recovery of heart rate ([1]; Tpo 1.0 ng/ml, untreated hearts 94±6%): 85±7 % of pre-ischemic values
Optimal concentration of Tpo that afforded maximum reduction of infarct size [1, 11]: 1.0 ng/mL
Optimal concentration that afforded maximal recovery of post-ischemic ventricular developed pressure [1, 11]: 1.0 ng/mL
Recovery of left ventricular developed pressure following ischemia and reperfusion ([1]; bell-shaped concentration-dependent, Tpo 0.01-10.0 ng/ml): increased
Myocardial infarct size [2]: decrease
